What was measured:
[1] = Half life in human HeLa cell cytosolic extract by RP-HPLC analysis; assay type: ADME, cell-based, Cytosol
[2] = Half life in DMEM by RP-HPLC analysis in presence of fetal bovine serum; assay type: ADME; conditions: cattle, DMEM with fetal bovine serum
[3] = Stability of the compound in DMEM assessed as compound remaining after 40 mins by RP-HPLC analysis in presence of fetal bovine serum; assay type: physicochemical; conditions: cattle, DMEM with fetal bovine serum; read-out: Stability

half-life [1] [h] | half-life [2] [h] | remaining at 40 min [3] [%] | SMILES
10 | 0.367 | 35 | CO[C@@H]1[C@H](O)[C@@H](COP(=O)([O-])OP(=O)(O)CP(=O)(O)OC[C@H]2O[C@@H](n3c[n+](C)c4c(=O)[nH]c(N(C)C)nc43)[C@H](O)[C@@H]2O)O[C@H]1n1cnc2c(N)ncnc21
10 | 0.217 | 15 | CO[C@@H]1[C@H](O)[C@@H](COP(=O)(O)OP(=O)([O-])OP(=O)(O)OC[C@H]2O[C@@H](n3c[n+](C)c4c(=O)[nH]c(N(C)C)nc43)[C@H](O)[C@@H]2O)O[C@H]1n1cnc2c(N)ncnc21
120 | 0.583 | 52 | CO[C@@H]1[C@H](O)[C@@H](COP(=O)(O)CP(=O)(O)OP(=O)([O-])OC[C@H]2O[C@@H](n3c[n+](C)c4c(=O)[nH]c(N(C)C)nc43)[C@H](O)[C@@H]2O)O[C@H]1n1cnc2c(N)ncnc21

Reference: ChEMBL document CHEMBL3091282, “Synthesis and evaluation of stability of m3G-CAP analogues in serum-supplemented medium and cytosolic extract” (Bioorg Med Chem, 2013)
